Data as given in paper PMC12444472, “BCI inhibits MKP3 by targeting the kinase-binding domain and disrupting ERK2 interaction” (The Journal of Biological Chemistry, 2025).
Changes are numbered by the printed parent chain.

Assays:
MKP3 T87G = biological target: T1, MKP3 T87G (Homo sapiens, UniProt Q16828, T87G); assay: MST affinity of MKP3 mutant; format: binding; conditions: full-length mutant
T1 construct: MKP3(1–381) (MKP3^FL); made in house; host or cells: Escherichia coli BL21(DE3)
T1 sequence (Q16828 1-381 T87G): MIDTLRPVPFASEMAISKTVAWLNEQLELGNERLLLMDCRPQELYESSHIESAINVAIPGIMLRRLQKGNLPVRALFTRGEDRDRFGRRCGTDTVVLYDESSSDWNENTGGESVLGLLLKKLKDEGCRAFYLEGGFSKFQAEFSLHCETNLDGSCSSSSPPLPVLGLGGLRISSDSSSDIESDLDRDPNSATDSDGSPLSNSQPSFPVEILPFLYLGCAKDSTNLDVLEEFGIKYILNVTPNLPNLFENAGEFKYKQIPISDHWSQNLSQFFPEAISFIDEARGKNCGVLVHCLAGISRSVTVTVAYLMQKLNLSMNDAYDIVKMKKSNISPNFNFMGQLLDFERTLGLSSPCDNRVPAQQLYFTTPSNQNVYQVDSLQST
Method: (§1) MST measurements were performed using fluorescently labeled proteins and the inhibitor BCI (CAS: 1245792-51-1; TargetMol) on a Monolith instrument (NanoTemper Technologies). The RED–Tris–NTA second-generation dye was dissolved in MST buffer (20 mM Hepes, pH 7.4, 200 mM NaCl, and 0.05% Tween-20) to prepare a 5 μM stock solution. Fluorescent labeling of MKP proteins followed the standard protocol of the MO-L018 RED–Tris–NTA protein labeling kit, leveraging the His-tag–dye interaction.
(§2) The BCI compound was prepared as a 600 to 750 μM stock solution in MST buffer with 10% DMSO to enhance solubility, followed by a 16-point serial dilution. The diluted BCI solutions were thoroughly mixed with labeled MKP proteins (50 nM) at a 1:1 volume ratio, yielding a final volume of 10 μl. The reaction mixtures were incubated in the dark for 10 min at room temperature before being loaded into standard glass capillaries. Measurements were carried out on the Monolith instrument (100% LED, 40% IR laser power) with a 20 s laser on time. The normalized fluorescence values from triplicate measurements were averaged at each concentration and fitted to a 1:1 binding model using the KD model in MO.Affinity software (v3.0.5, NanoTemper Technologies) to determine the binding affinities between MKP proteins and the BCI inhibitor. The final reported Kd value represents the mean ± SD of Kd values obtained from three independent experiments, each fitted separately.
(§3) Figure S3. Affinity measurements of MKP3 mutants with BCI by MST. The binding affinities of full-length MKP3 mutants (E81G, R83G, R85G, R87G, and R89A) to BCI were determined by MST and are presented as mean ± SD (n = 3). Wild-type MKP3 (MKP3^WT) was included as a reference.

MKP3 R83G = biological target: T2, MKP3 R83G (Homo sapiens, UniProt Q16828, R83G); assay: MST affinity of MKP3 mutant; format: binding; conditions: full-length mutant
T2 construct: MKP3(1–381) (MKP3^FL); made in house; host or cells: Escherichia coli BL21(DE3)
T2 sequence (Q16828 1-381 R83G): T1 sequence (Q16828 1-381 T87G) with R83G, G87T
Method: as §1, §2, §3

MKP3^CD = biological target: T3, MKP3^CD (Homo sapiens, UniProt Q16828); assay: Phosphatase activity toward pERK2 (coupled MESG assay); format: biochemical; conditions: initial velocities in absence and presence of BCI, n = 3
T3 construct: ^15N-labeled MKP3^1–154, MKP3^14–152, MKP3^204–350; made in house; host or cells: Escherichia coli BL21(DE3)
T3 sequence (Q16828 204-350): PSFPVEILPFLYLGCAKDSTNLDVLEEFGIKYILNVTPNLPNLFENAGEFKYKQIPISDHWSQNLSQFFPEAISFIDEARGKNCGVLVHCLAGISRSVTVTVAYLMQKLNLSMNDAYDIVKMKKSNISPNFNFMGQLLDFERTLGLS
Method: (§4) The phosphatase activity of MKP3 (0.5 μM) toward pERK2 (0.5 μM) was measured using a coupled assay, in which phosphate released from the substrate was transferred to 7-methyl-6-thioguanosine (MESG) by purine nucleoside phosphorylase. Assays were performed in a reaction mixture containing 50 mM Mops (pH 7.0), 100 mM NaCl, 0.1 mM EDTA, 100 μM MESG, 4 μM purine nucleoside phosphorylase, and varying concentrations of BCI, as indicated in Figure 5. Dephosphorylation was monitored by measuring absorbance changes at 360 nm, reflecting the conversion of MESG to 7-methyl-6-thioguanine in the presence of inorganic phosphate. Phosphate quantification was performed using an extinction coefficient of 11,200 M^-1 cm^-1 at 360 nm.
(§5) Stock solutions of BCI (dissolved in DMSO) at different concentrations were prepared to maintain a constant DMSO concentration across all BCI concentrations in the phosphatase inhibition assays, thereby eliminating potential effects of varying DMSO levels on detection. Initial reaction rates were determined from the linear slope of progress curves, and the data were analyzed using nonlinear regression. Kinetic parameters (kcat and Km) were obtained by fitting the data to the Michaelis–Menten equation: v0 = kcat[E][S]/(Km + [S]). […]

MKP3^FL = biological target: T4, MKP3^FL (Homo sapiens, UniProt Q16828); assay: as above; format: biochemical; conditions: BCI at concentration 50 times that of pERK2
T4 construct: MKP3(1–381) (MKP3^FL); made in house; host or cells: Escherichia coli BL21(DE3)
T4 sequence (Q16828 1-381): T1 sequence (Q16828 1-381 T87G) with G87T
Method: as §4, §5

SMILES: O=C1/C(=C/c2ccccc2)C(NC2CCCCC2)c2ccccc21 (stereo not shown) [BCI, (E)-2-benzylidene-3-(cyclohexylamino)-2,3-dihydro-1H-inden-1-one]
- affinity for BCI compared with MKP3^WT (MKP3 T87G): affinities similar to the WT
- affinity for BCI compared with MKP3^WT (MKP3 R83G): significantly reduced affinity
- effect on MKP3^CD activity toward pERK2 (MKP3^CD): no effect
- extension of pERK2 dephosphorylation time (MKP3^FL): more than 20 fold
